The results in this text go back to patent publication US9896443B2, “Perforin inhibiting benzenesulfonamide compounds, preparation and uses thereof” (Peter MacCallum Cancer Institute, priority 2012, dated 2018).

Each structure is given as a SMILES string. Counter-ions that a name gives are not always drawn.

In general, IC50 refers to the midpoint of a concentration-inhibition curve. One may read the inhibition as the percentage by which the read-out fell short of the control.

Sequence of recombinant perforin (P10820 whole entry): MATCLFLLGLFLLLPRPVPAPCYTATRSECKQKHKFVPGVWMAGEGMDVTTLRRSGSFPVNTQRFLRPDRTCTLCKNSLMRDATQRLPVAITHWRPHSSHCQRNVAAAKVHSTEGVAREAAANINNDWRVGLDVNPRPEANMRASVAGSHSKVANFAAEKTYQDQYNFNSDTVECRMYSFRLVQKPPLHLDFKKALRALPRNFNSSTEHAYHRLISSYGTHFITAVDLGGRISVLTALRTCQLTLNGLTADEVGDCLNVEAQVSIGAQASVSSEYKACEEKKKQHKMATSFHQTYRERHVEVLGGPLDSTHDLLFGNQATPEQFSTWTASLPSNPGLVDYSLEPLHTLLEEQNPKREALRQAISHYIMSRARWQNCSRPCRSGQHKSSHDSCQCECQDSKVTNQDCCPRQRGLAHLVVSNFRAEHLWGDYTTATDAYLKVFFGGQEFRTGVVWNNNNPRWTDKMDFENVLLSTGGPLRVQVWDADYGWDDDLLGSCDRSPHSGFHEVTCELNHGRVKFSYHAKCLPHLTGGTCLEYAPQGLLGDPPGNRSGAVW

One test addresses recombinant perforin (UniProt P10820).
Assay: not given
In kind it is cell-based. Conditions: lysis of Jurkat T lymphoma cells by recombinant perforin, 0.1% BSA, 30 min pre-incubation, 4 hours at 37° C.; read-out: Jurkat IC50. How it is done:
Inhibition of perforin-mediated lysis of Jurkat cells.
The ability of the compounds to inhibit the lysis of nucleated (Jurkat T lymphoma) cells in the presence of 0.1% BSA, as measured by release of ^51Cr was measured. Jurkat target cells were labelled by incubation in medium with 100 μCi ^51Cr for one hour. The cells were then washed three times to remove unincorporated isotope and re-suspended at 1×10^5 cells per mL in RPMI buffer supplemented with 0.1% BSA. […] Each data point was performed in triplicate and an IC50 was calculated from the range of concentrations described to above.
For `CN1Cc2cc(-c3ccc(-c4cncc(NS(=O)(=O)c5cccc(Cl)c5F)c4)s3)ccc2C1=O` [Compound 14, 3-Chloro-2-fluoro-N-(5-(5-(2-methyl-1-oxoisoindolin-5-yl)thiophen-2-yl)pyridin-3-yl)benzenesulfonamide], the IC50 was determined as 13 µM.
For the compound `CN1Cc2cc(-c3ccc(-c4cncc(NC(=S)NC(=O)c5ccc(F)cc5)c4)s3)ccc2C1=O` [Compound 68, 4-Fluoro-N-((5-(5-(2-methyl-1-oxoisoindolin-5-yl)thiophen-2-yl)pyridin-3-yl)carbamothioyl)benzamide], the IC50 turned out to be 15.9 µM.
On to `O=C1c2ccc(-c3ccc(-c4cncc(NS(=O)(=O)c5ccc(F)cc5F)c4)s3)cc2CN1CCN1CCOCC1` [Compound 69, 2,4-Difluoro-N-(5-(5-(2-(2-morpholinoethyl)-1-oxoisoindolin-5-yl)thiophen-2-yl)pyridin-3-yl)benzenesulfonamide], for which the IC50 came to 17 µM.
Turning to `CN1Cc2cc(-c3ccc(-c4cncc(NS(=O)(=O)c5ccccc5C#N)c4)s3)ccc2C1=O` [Compound 79.Na, 2-Cyano-N-(5-(5-(2-methyl-1-oxoisoindolin-5-yl)thiophen-2-yl)pyridin-3-yl)benzenesulfonamides], the IC50 amounted to 9.17 µM.
Turning to `Cc1cc(C)n(-c2ccc(S(=O)(=O)Nc3cncc(-c4ccc(-c5ccc6c(c5)CN(C)C6=O)s4)c3)cc2)n1` [Compound 80, 4-(3,5-Dimethyl-1H-pyrazol-1-yl)-N-(5-(5-(2-methyl-1-oxoisoindolin-5-yl)thiophen-2-yl)pyridin-3-yl)benzenesulfonamides], the IC50 was 19.1 µM.
Take `CN1Cc2cc(-c3ccc(-c4cncc(NS(=O)(=O)c5ccc(F)cc5F)c4)nc3)ccc2C1=O` [Compound 83, 2,4-Difluoro-N-(5-(2-methyl-1-oxoisoindolin-5-yl)-[2,3′-bipyridin]-5′-yl)benzenesulphonamide]: the IC50 was 8.17 µM.
`CCOC(=O)c1ccc(S(=O)(=O)Nc2cncc(-c3ccc(-c4ccc5c(c4)CN(C)C5=O)s3)c2)cc1` [Compound 85, Ethyl 4-(N-(5-(5-(2-methyl-1-oxoisoindolin-5-yl)thiophen-2-yl)pyridin-3-yl)sulfamoyl)benzoate]: the IC50 was found to be 19.4 µM.
As for `CN1Cc2cc(-c3ccc(-c4cnc(F)c(NS(=O)(=O)c5ccccn5)c4)s3)ccc2C1=O` [Compound 90, N-(2-Fluoro-5-(5-(2-methyl-1-oxoisoindolin-5-yl)thiophen-2-yl)pyridin-3-yl)pyridine-2-sulfonamide], the IC50 is 4.1 µM.
Still for that read-out and setting: with `COC(=O)c1cccc(S(=O)(=O)Nc2cncc(-c3ccc(-c4ccc5c(c4)CN(C)C5=O)s3)c2)c1` [Compound 91, Methyl 3-(N-(5-(5-(2-methyl-1-oxoisoindolin-5-yl)thiophen-2-yl)pyridin-3-yl)sulfamoyl)benzoate] the figure was 7.77 µM.

A further test deals with KHYG-1 NK cell-mediated lysis of K562 cells. The test is described as follows: Inhibition of KHYG-1 NK cell-mediated lysis of K562 cells (51Cr release). It counts as cell-based. Conditions: 4 h, K562 target cells, Effector:Target 2:1, 4 hours at 37° C. As to the method: Inhibition of KHYG-1 NK Cell-Mediated Lysis of K562 Cells.
Test compounds were added to KHYG-1 cells at various concentrations up to 20 µM and incubated at RT for 20 minutes. 1×10^6 K562 target cells were labelled with 75 μCi ^51Cr in 200 μl RPMI for 90 mins at 37° C., cells were washed as described above and resuspended in 5 ml RPMI+0.1% BSA. 50 μl of ^51Cr labelled K562 leukemia target cells were added to each well of the KHYG-1 plate (Effector:Target 2:1) and incubated at 37° C. for 4 hours. ^51Cr release was assayed using a Skatron Harvesting Press and radioactivity estimated on a Wallac Wizard 1470 Automatic Gamma counter (Turku, Finland). The percentage of specific cytotoxicity was calculated by the formula: […]
Take `CN1Cc2cc(-c3ccc(-c4cncc(NS(=O)(=O)c5ccc(F)cc5F)c4)s3)ccc2C1=O` [Compound 1, 2,4-Difluoro-N-(5-(5-(2-methyl-1-oxoisoindolin-5-yl)thiophen-2-yl)pyridin-3-yl)benzenesulfonamide]: the inhibition at 20 µM is 46%.
In turn, `COc1ccc(S(=O)(=O)Nc2cncc(-c3ccc(-c4ccc5c(c4)CN(C)C5=O)s3)c2)cc1OC` [Compound 21.Na, 3,4-Dimethoxy-N-(5-(5-(2-methyl-1-oxoisoindolin-5-yl)thiophen-2-yl)pyridin-3-yl)benzenesulfonamide, sodium salt] came in with an inhibition at 20 µM of 31%.
As to `O=C1NCc2cc(-c3ccc(-c4cncc(NS(=O)(=O)c5ccc(F)cc5F)c4)s3)ccc21` [Compound 48, 2,4-Difluoro-N-(5-(5-(1-oxoisoindolin-5-yl)thiophen-2-yl)pyridin-3-yl)benzenesulfonamide], the inhibition at 20 µM was 35%.
For the compound `O=S(=O)(Nc1cncc(-c2ccc(-c3ccc4[nH]ccc4c3)s2)c1)c1ccc(F)cc1F` [Compound 71, N-(5-(5-(1H-indol-5-yl)thiophen-2-yl)pyridin-3-yl)-2,4-difluorobenzenesulfonamide], the inhibition at 20 µM came out at 87.7 ± 9%.
